What was measured:
NAMPT = molecular target: T1, NAMPT (Homo sapiens, UniProt P43490); assay: CycLex NAMPT Colorimetric Assay, NAMPT enzymatic activity; assay type: biochemical; conditions: three doses 0.1, 1, 10 uM
T1 construct: purchased MBL International (Woburn, Mass.)
Procedure: CycLex NAMPT Colorimetric Assay Kit was purchased from MBL International (Woburn, Mass.) and utilized to screen the effect of putative NAMPT inhibitors on NAMPT enzymatic activity. Three doses (0.1, 1, 10 uM) of each NAMPT inhibitors was used following the manufacturer's instruction.

MCT-induced PH in rats = assay: MCT-PH model, FK-866 analogs as preventive therapy; assay type: in vivo; conditions: for hypertrophy-ratio of RV and LV plus septal-S weight (RVH-RV) / right ventricular systolic pressure (RVSP): preliminary studies in MCT-PH
Procedure: FIG. 10A is a bar graph showing normalized NAMPT activity in the present of FK866 and FK analogues MS-1-82, Rari049, Alp-135 at 0.1, 1, and 10 μM concentrations. FIG. 10B is a bar graph showing RVSP in MCT-induced PH in rats and in MCT-induced PH in rats with Rari049 (2.5 mg/kg, i.p. BID, ×2 wks) (RVSP-right ventricular systolic pressure, RVH-RV hypertrophy-ratio of RV and LV plus septal-S weight).

[1] = tested on: Human pulmonary artery endothelial cells (EC); assay: TNF-α-induced apoptosis / PARP-1 cleavage in human lung endothelial cells; assay type: cell-based
Procedure: Human pulmonary artery endothelial cells (EC) were obtained from Lonza (Walkersville Md.) and were cultured in the manufacturer's recommended endothelial growth medium-2 (EGM-2). Cells were grown at 37° C. in a 5% CO2 incubator, and passages 6 to 9 were used for experiments. Media was changed one day before experimentation. For RNA interference, siRNAs were transfected into EC at a final concentration of 100 nM for 72 hrs. Protein quantification and Western blot analysis were performed according to standard procedures.
(B) ECs were pre-treated (6 hrs) with either vehicle (DMSO) or with a caspase-3 inhibitor (z-DEVD-fmk, 20 μM) prior to 24 hr challenge with TNF-α (30 ng/ml), FasL (100 ng/ml) or tBHP (5 mM). […] (C) ECs were transfected with myc-tagged NAMPT plasmid resulting in marked NAMPT overexpression. […] Error bars indicate SEM of three independent experiments.

hPASMCs = assay: TUNEL apoptosis assay in hPASMCs; assay type: cell-based, human; conditions: FK866 10 μM, 24 hrs
Procedure: hPASMCs were cultured on a coverslip in a 6-well cell culture plate. H2O2 (100 μM, Sigma, Cat. #ab66110) was used as an apoptosis stimulus for hPASMCs.
When cell confluence reached 95%, cells were starved for 3 hrs and stimulated by H2O2, FK866 (10 μM), H2O2+rhNAMPT (20 μg/ml) or H2O2+rhNAMPT (20 μg/ml) with FK866 (10 μM) for 24 hrs. Cell apoptosis was examined using an in situ BrdU-Red DNA fragmentation (TUNEL) kit. The cells on the coverslips were examined using a Nikon Eclipse E800 fluorescence microscope, and the images were processed by MetaMorph software (Molecular Devices, Inc.). Approximately ten images were taken from each condition, and over 500 cells were counted according to DAPI staining.

[2] = MCT-PH, 2.5 mg/kg, i.p. BID, ×2 wks

T1 sequence (P43490 whole entry): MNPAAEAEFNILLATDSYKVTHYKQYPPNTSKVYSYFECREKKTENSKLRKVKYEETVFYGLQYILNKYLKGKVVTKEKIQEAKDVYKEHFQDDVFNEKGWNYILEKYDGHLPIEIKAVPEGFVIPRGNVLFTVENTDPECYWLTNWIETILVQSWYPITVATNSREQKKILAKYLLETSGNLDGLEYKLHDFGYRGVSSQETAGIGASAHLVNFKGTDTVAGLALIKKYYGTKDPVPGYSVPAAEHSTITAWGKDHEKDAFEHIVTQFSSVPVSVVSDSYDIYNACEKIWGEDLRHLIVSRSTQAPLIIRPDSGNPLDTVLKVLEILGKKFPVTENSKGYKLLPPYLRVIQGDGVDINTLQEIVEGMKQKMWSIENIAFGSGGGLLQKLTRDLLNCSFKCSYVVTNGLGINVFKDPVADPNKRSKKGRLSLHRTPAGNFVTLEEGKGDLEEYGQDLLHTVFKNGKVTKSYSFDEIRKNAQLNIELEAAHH

Compound | NAMPT enzyme inhibitory properties (NAMPT) | hypertrophy-ratio of RV and LV plus septal-S weight (RVH-RV) (MCT-induced PH in rats) | right ventricular systolic pressure (RVSP) (MCT-induced PH in rats) | other results
O=C(/C=C/c1cccnc1)NCCCCCCn1c2ccccc2c2ccccc21 [Alp135] | excellent dose-dependent enzyme inhibitory properties | reducing | reducing | –
O=C(/C=C/c1cccnc1)NCCCCC1CCN(C(=O)c2ccccc2)CC1 [FK866, (E)-N-[4-(1-Benzoylpiperidin-4-yl)butyl]-3-pyridin-3-ylprop-2-enamide, reference compound] | – | – | – | TNFα-induced EC apoptosis ([1]; human lung EC): failed to alter; hPASMC apoptosis (TUNEL positive cells) (hPASMCs): promotes
O=C(/C=C/c1cccnc1)NCCCCCCNC(=O)c1cccnc1 [MS-1-82] | excellent dose-dependent enzyme inhibitory properties | – | – | –
O=C(/C=C/c1cccnc1)NCCCCCCn1c(-c2ccccc2)cc2ccccc21 [Rari049] | excellent dose-dependent enzyme inhibitory properties | reducing | reducing | RVH (MCT-induced PH in rats; [2]): reducing; RVSP (MCT-induced PH in rats; [2]): reducing
z-DEVD-fmk | – | – | – | PARP-1 cleavage induced by TNF-α ([1]; pre-incubated 6 hrs, 20 μM, TNF-α 30 ng/ml 24 hrs, vs vehicle (DMSO)): significantly reduced
